Source: paper PMC11997989, “Design of Novel Mercapto-3-phenylpropanoyl Dipeptides as Dual Angiotensin-Converting Enzyme C–Domain-Selective/Neprilysin Inhibitors” (Journal of Medicinal Chemistry, 2025)

Tests used:
[1] = target: T1, human NEP ectodomain (Homo sapiens, UniProt P08473); assay: NEP inhibition assay (continuous fluorogenic activity assay); assay type: biochemical; settings: for IC50: 0.4 nM NEP, mean ± standard error, n ≥ 2
T1 construct: A purified human NEP ectodomain was used in continuous activity assays; made in house
T1 sequence (P08473 52-750 limits assumed): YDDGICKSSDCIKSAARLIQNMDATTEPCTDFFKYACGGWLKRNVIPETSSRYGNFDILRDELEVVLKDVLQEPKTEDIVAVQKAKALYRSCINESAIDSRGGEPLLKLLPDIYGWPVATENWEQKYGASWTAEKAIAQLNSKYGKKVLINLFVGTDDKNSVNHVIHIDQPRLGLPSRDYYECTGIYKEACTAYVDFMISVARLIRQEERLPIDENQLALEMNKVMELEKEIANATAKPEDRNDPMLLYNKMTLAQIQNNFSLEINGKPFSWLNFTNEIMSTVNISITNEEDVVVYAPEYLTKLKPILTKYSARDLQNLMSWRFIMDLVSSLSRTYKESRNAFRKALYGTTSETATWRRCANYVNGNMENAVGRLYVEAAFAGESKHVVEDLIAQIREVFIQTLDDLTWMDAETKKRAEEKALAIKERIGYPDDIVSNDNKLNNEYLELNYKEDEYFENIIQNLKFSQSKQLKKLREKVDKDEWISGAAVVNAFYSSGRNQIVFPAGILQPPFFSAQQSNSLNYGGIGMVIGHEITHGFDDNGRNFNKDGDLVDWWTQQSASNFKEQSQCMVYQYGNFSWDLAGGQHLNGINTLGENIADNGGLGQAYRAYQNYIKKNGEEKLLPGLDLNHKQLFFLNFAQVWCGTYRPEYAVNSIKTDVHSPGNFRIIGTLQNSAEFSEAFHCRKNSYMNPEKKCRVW
Excerpt: Furthermore, while comparing Ki values (assuming they can be accurately determined in vitro using available kinetic models) provides information on the relative binding affinities in the absence of substrate, in vivo the extent of enzyme inhibition will be affected by the relative concentrations and affinities of the physiological substrates competing for the binding sites.

[2] = target: T2, cACE (Homo sapiens, UniProt P12821); assay: ACE inhibition assay, cACE (fluorogenic end point, Z-FHL); assay type: biochemical; settings: for C-selectivity factor: nACE IC50/cACE IC50; for IC50: ~1 nM cACE, 0.5 mM Z-FHL, mean ± standard error, n ≥ 2
T2 construct: using purified recombinant single domain human ACE proteins and the human NEP ectodomain as previously described; made in house
T2 sequence (P12821 643-1222 limits assumed): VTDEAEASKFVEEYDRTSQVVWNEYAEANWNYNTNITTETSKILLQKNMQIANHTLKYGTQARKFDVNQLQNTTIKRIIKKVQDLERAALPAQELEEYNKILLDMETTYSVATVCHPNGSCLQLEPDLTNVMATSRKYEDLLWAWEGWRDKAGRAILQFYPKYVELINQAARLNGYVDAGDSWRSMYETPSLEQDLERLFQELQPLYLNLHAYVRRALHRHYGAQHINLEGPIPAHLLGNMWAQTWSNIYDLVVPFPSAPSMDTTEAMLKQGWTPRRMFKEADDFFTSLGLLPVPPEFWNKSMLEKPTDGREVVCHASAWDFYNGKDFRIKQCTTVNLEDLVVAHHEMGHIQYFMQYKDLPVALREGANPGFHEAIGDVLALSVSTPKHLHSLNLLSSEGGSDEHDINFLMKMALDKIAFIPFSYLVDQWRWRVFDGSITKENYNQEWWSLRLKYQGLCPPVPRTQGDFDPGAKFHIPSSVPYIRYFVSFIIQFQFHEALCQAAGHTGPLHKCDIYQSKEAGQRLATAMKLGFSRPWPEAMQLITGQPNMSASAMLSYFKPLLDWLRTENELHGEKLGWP
Excerpt: (§1) For an accurate comparison of the inhibitor potencies across different enzymes and substrates, it is preferable to determine inhibition constants (Ki values). […] In the case of these new analogues, it was more challenging to accurately determine Ki values that could reliably be used to determine selectivity. […] This highlights the challenges in extrapolating data from in vitro assays to predict in vivo selectivity between targets. Furthermore, while comparing Ki values (assuming they can be accurately determined in vitro using available kinetic models) provides information on the relative binding affinities in the absence of substrate, in vivo the extent of enzyme inhibition will be affected by the relative concentrations and affinities of the physiological substrates competing for the binding sites. Given that accurate Ki values could not be calculated in a consistent manner for all compound-enzyme combinations, IC50 values are reported (Table 1).
(§2) Purified fully glycosylated human cACE and nACE proteins[36],[37] were used in fluorogenic end point activity assays utilizing Cbz-Phe-His-Leu (Z-FHL, Bachem Ltd., nACE Km = 600 μM; cACE Km = 60 μM) as the substrate as previously described.[32] Final reactions contained ∼1 nM nACE/cACE and 0.5 mM Z-FHL.

[3] = target: T3, nACE (Homo sapiens, UniProt P12821); assay: ACE inhibition assay, nACE (fluorogenic end point, Z-FHL); assay type: biochemical; settings: for reduction in affinity for nACE compared to omapatrilat: factor, from IC50 values; for IC50: ~1 nM nACE, 0.5 mM Z-FHL, mean ± standard error, n ≥ 2
T3 construct: using purified recombinant single domain human ACE proteins and the human NEP ectodomain as previously described; made in house
T3 sequence (P12821 40-624 limits assumed): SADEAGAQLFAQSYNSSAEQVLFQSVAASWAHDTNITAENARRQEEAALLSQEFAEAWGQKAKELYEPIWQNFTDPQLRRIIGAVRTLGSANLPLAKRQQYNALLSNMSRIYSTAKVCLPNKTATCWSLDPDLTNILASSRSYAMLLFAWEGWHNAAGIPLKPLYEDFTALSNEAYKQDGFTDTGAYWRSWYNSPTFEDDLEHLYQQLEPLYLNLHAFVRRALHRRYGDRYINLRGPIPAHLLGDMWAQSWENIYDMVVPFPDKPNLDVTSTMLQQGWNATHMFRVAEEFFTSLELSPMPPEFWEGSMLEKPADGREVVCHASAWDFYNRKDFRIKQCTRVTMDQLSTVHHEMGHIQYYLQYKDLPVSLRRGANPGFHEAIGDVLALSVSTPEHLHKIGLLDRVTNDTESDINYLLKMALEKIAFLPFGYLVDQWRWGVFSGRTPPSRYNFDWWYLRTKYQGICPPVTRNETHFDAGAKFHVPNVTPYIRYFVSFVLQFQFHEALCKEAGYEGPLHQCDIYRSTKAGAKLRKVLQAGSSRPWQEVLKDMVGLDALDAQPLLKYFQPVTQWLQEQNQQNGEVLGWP
Excerpt: as §1, §2

[4] = target: T3, nACE; assay: Jump dilution assay, nACE; assay type: biochemical; settings: 15 min pre-incubation, 20-fold dilution, activity immediately and ~3 h later, 1 mM Z-FHL
Description: (§3) Figure S2: Jump dilution experiment forAD016. A) Enzyme and inhibitor were pre-incubated for 15 min and then an aliquot of each was removed and diluted 20-fold in assay buffer. Activity assays were performed on both the undiluted (A and C) and diluted (B and D) enzyme-inhibitor mixes immediately and ~3h. later. Reaction was initiated with Z-FHL substrate (1mM final concentration). Final enzyme and inhibitor concentrations are […]
(§4) The Morrison equation was fitted to the same data but gave a poor fit when Et was constrained to the enzyme concentration used in the assay and an unrealistic Et if this value was left unconstrained (Figure S3 C & D). The obvious explanation for the high Et predicted by the model is that the inhibitor concentration is much lower than […]
(§5) the nACE data would imply the inhibitor concentration is ~350-fold lower than expected while the cACE data implies it is 40-fold lower than expected. The same inhibitor dilution series was […]
(§6) (1 picture or pasted object on this page, not shown here)
(§7) Figure S4: Morrison plots for the inhibition of cACE by compound AD016. Two assays with carried out in parallel. One using 1nM final enzyme concentration and the other using 5-fold less (0.2nM). The model was fitted without constraining the Et. The Et predicted from data set using the Morrison equation is indicated on the graph. […]

[5] = target: T2, cACE; assay: Michaelis-Menten inhibition kinetics (mode of inhibition), cACE; assay type: biochemical; settings: enzyme and inhibitor pre-incubated 15 min; best-fitting model
Description: (§8) page 9: curve. […] The apparent […]) obtained from this equation can then be converted to K i as for an IC50 value using Equation 1 provided the substrate competes with the inhibitor for the active site. (Et [[…] = V0(1 - i i ) Eq 2 2Et Where Vo is activity in absence of inhibitor, Vi is activity in presence of inhibitor, [I] is inhibitor concentration and Et is total enzyme concentration. Due to the slow binding of many protease inhibitors, inhibitors are typically pre-incubated with the enzyme prior to the addition of substrate to ensure that inhibition constants are measured under steady-state conditions. Accordingly, if an inhibitor forms a very tight complex with the enzyme resulting in a very slow off-rate, the inhibitor may not dissociate in the time of the experiment. Determining the Ki values for the mercaptoacyl inhibitors was challenging due to the chemical instability of the thiol group (although this was controlled by making up fresh stock before each experiment and diluting them immediately), the high potency, and the slow off rates observed in some cases, particularly for cACE. […] This is exemplified by the data for AD016. […] The K i values for the cACE determined in from this model were also inconsistent and were influence by the amount of enzyme used to the assay, again indicative of tight-binding conditions (Figure S1 C and D). […]

[6] = target: T2, cACE; assay: Jump dilution assay, cACE; assay type: biochemical; settings: 15 min pre-incubation, 20-fold dilution, activity immediately and ~3 h later, 1 mM Z-FHL
Description: as §3, §4, §5, §6, §7

[7] = target: T4, NEP (Homo sapiens, UniProt P08473); assay: Michaelis-Menten inhibition kinetics (mode of inhibition), NEP; assay type: biochemical; settings: enzyme and inhibitor pre-incubated 15 min; best-fitting model
T4 construct: A purified human NEP ectodomain was used in continuous activity assays; made in house
T4 sequence (P08473 52-750 limits assumed): as the sequence (P08473 52-750 limits assumed) above

[8] = target: T3, nACE; assay: Michaelis-Menten inhibition kinetics (mode of inhibition), nACE; assay type: biochemical; settings: enzyme and inhibitor pre-incubated 15 min; best-fitting model
Description: as §8

[9] = target: T1, human NEP ectodomain; parameters: method as in PMID 35113565; settings: stated in discussion, LisW data previously reported; cited from earlier work
[10] = system: patients; settings: OCTAVE study, higher than the ACE inhibitor enalapril; cited from earlier work
[11] = 5 μM MCA-RPPGFSAFK(Dnp)-OH substrate

| IC50 [2] [nM] | Structure (SMILES) | IC50 [1, 11] [nM] | C-selectivity factor [2] | reduction in affinity for nACE compared to omapatrilat [3] | IC50 [3] [nM] | also measured |
| --- | --- | --- | --- | --- | --- | --- |
|  | O=C(NCC(=O)N1[C@@H](c2cccc(O)c2)CC[C@H]1C(=O)O)[C@@H](S)Cc1ccc(O)cc1 [AD014, (2S,5R)-5-(3-Hydroxyphenyl)-1-(((S)-3-(4-hydroxyphenyl)-2-mercaptopropanoyl)glycyl)pyrrolidine-2-carboxylic Acid] | 20 ± 10 | 2 | ~10 | 20 ± 7 | reduction in affinity for cACE compared to omapatrilat ([2]; factor, from IC50 values): ~10 |
| 0.8 ± 0.2 | Cc1ccc([C@H]2CC[C@@H](C(=O)O)N2C(=O)CNC(=O)[C@@H](S)Cc2ccccc2)cc1 [AD015, (2S,5R)-1-(((S)-2-Mercapto-3-phenylpropanoyl)glycyl)-5-(p-tolyl)pyrrolidine-2-carboxylic Acid] | 9 ± 3 |  | 10 | 19 ± 1 | selectivity for NEP over nACE ([1]; from IC50 values): 2 fold |
|  | NCCCC[C@H](NC(=O)[C@@H](S)Cc1ccccc1)C(=O)N[C@@H](Cc1c[nH]c2ccccc12)C(=O)O [AD016, ((S)-2-Mercapto-3-phenylpropanoyl)-L-lysyl-L-tryptophan] | 1200 ± 200 | 21 |  | 150 ± 20 | dissociation from nACE on jump dilution [4]: dissociates from nACE when diluted; IC50 ([1]; 5 μM MCA-[…](Dnp)-OH substrate): 1000 nM; improved NEP inhibitory activity compared to LisW ([1]; ratio of NEP IC50 values, LisW vs compound): over 200 fold; mode of inhibition of cACE [5]: non-competitive; dissociation from cACE on jump dilution [6]: remains tightly bound; mode of inhibition of NEP [7]: competitive inhibition; mode of inhibition of nACE [8]: competitive inhibition |
|  | NCCCC[C@H](N[C@@H](CCc1ccccc1)C(=O)O)C(=O)N[C@@H](Cc1c[nH]c2ccccc12)C(=O)O [LisW, Lisinopril-tryptophan] |  |  |  |  | Ki [9]: > 150000 nM |
| 1 ± 0.1 | O=C(N[C@H]1CCS[C@H]2CCC[C@@H](C(=O)O)N2C1=O)[C@@H](S)Cc1ccccc1 [Omapatrilat, reference compound] | 10 |  |  | 2 ± 0.1 | incidence of angioedema relative to enalapril [10]: 3 fold |
